Reference: publication PMC5614982, “Impact of Gastric H^+/K^+-ATPase rs2733743 on the Intragastric pH-Values of Dexlansoprazole Injection in Chinese Subjects” (Frontiers in Pharmacology, 2017)
Marks after values point to notes of the source that are not given here.

Tested on: intragastric pH
Assay: 24-h intragastric pH monitoring after single intravenous dexlansoprazole in healthy Chinese subjects
Assay type: in vivo, human
Conditions: for AUCτ 1−τ 2pH−t: second AUC line
Method: Dexlansoprazole injection (30 mg per vial) used in the PK and PD study was manufactured by Nanjing Yoko Pharma Co., Ltd. (Nanjing, China). Subjects received an intravenous infusion of 20 or 30 mg dexlansoprazole injection in sterile saline solution (100 mL/h, 60 min). The study drug was administrated with an infusing pump (SA213, Lifepum, Beijing, China) and given through an intravenous catheter in the antecubital vein opposite to the one from which blood samples were taken.
An ambulatory pH recorder (Orion II, MMS, USA) with a disposable pH catheter (VersaFlex, MMS, USA) was used to monitor intragastric pH. The electrode was placed in water for at least 10 min and then calibrated using standard buffer solutions (pH 1.07 and 7.01) before intubation. Both calibration and intubation processes were conducted under the guidance of MMS Virtual Instructor Program. The catheter, trans nasally placed 10 cm under the lower esophageal sphincter, was identified by a sharp decrease in pH (Wang et al., [2010], [2011]). Subjects were intubated on baseline and the day of dosing at about 7:30 a.m., and the intragastric pH data were recorded continuously for 24 h from 8:00 a.m. Intragastric pH was sampled every second, and the data were stored in a MMS Database program (MMS, USA). The PD parameters including Median (pH), Mean (pH), TpH≥3 (%), TpH≥4 (%), TpH≥6 (%), TpH≥6, and AUC^pH−t were analyzed by the MMS Database program.
Median (pH) and mean (pH) were well-investigated in most studies, and the percentage time of pH ≥ 4 (or pH ≥ 4 holding time ratio) was the benchmark for predicting clinical efficacy of PPIs in treating acid-related diseases (Metz et al., [2009]). Novel parameter TpH≥6 (time to first gastric pH ≥ 6, min) and AUCτ 1-τ 2pH-t (area under pH-time curve from τ1 to τ2, pH·s) were defined to evaluate the velocity and extent of pharmacodynamics with more accuracy. All parameters were calculated and compared according to time periods of 0–24, 0–4, 4–10, 10–14, and 14–24 h post dosing.
The parameter AUCτ 1-τ 2pH-t was calculated as follows:
Where t represented the time duration measured by seconds, AUCτ 1-τ 210-t was the area between the pH line = 10 and the pH-time curve, which was generated by the MMS software.
Baseline-adjusted PD parameters were calculated as follows: for example, ΔAUC^pH−t = AUC^pH−t − AUC^pH−tbaseline, ΔMean (pH) = Mean (pH) − Mean (pH)^baseline, and ΔMedian (pH) = Median (pH) − Median (pH)^baseline.

[1] = 30 mg iv, H+/K+-ATPase Het (n = 10), 0–4 h
[2] = 30 mg iv, H+/K+-ATPase Het (n = 10), 0–24 h
[3] = 30 mg iv, H+/K+-ATPase Het (n = 10), 14–24 h
[4] = 30 mg iv, H+/K+-ATPase Hom (n = 10), 0–4 h
[5] = 30 mg iv, H+/K+-ATPase Hom (n = 10), 0–24 h
[6] = 30 mg iv, H+/K+-ATPase Hom (n = 10), 14–24 h
[7] = 30 mg iv, H+/K+-ATPase WT (n = 8), 0–4 h
[8] = 30 mg iv, H+/K+-ATPase WT (n = 8), 0–24 h
[9] = 30 mg iv, H+/K+-ATPase WT (n = 8), 14–24 h

Cc1c(OCC(F)(F)F)ccnc1C[S@@+]([O-])c1nc2ccccc2[nH]1 [dexlansoprazole]
ΔMedian (pH) [1]: 3.3 ± 2.0^c pH
ΔTpH≥3(%) [1]: 52.6 ± 22.2%
ΔTpH≥4 (%) [1]: 51.0 ± 20.6%
ΔTpH≥6(%) [1]: 46.0 ± 33.2%
Mean (pH) [2]: 5.9 ± 1.5 pH
Median (pH) [2]: 6.0 ± 1.9 pH
TpH≥3(%) [2]: 81.0 ± 20.9%
TpH≥4(%) [2]: 74.9 ± 25.7%
TpH≥6(%) [2]: 59.2 ± 25.9%
ΔMean (pH) [2]: 3.0 ± 1.0^c pH
ΔMedian (pH) [2]: 4.0 ± 1.6 pH
ΔTpH≥3(%) [2]: 51.8 ± 14.2^c %
ΔTpH≥4 (%) [2]: 54.9 ± 19.1^c %
ΔTpH≥6(%) [2]: 47.2 ± 17.0^c %
Mean (pH) [3]: 5.1 ± 1.9 pH
Median (pH) [3]: 4.9 ± 2.3 pH
TpH≥3(%) [3]: 72.0 ± 33.7%
TpH≥4(%) [3]: 63.2 ± 38.0%
TpH≥6(%) [3]: 41.0 ± 26.2%
ΔMean (pH) [3]: 1.9 ± 0.9^c pH
ΔMedian (pH) [3]: 2.1 ± 1.9^c pH
ΔTpH≥3(%) [3]: 44.1 ± 21.3^c %
ΔTpH≥4 (%) [3]: 37.7 ± 20.5^c %
ΔTpH≥6(%) [3]: 17.4 ± 11.2^c %
Mean (pH) [4]: 6.2 ± 0.8 pH
Median (pH) [4]: 7.5 ± 0.6 pH
TpH≥3(%) [4]: 78.0 ± 7.4%
TpH≥4(%) [4]: 73.1 ± 12.6%
TpH≥6(%) [4]: 70.3 ± 14.7%
ΔMean (pH) [4]: 4.2 ± 0.3^a pH
ΔMedian (pH) [4]: 5.8 ± 0.3^a^,^b pH
ΔTpH≥3(%) [4]: 68.4 ± 8.6%
ΔTpH≥4 (%) [4]: 67.5 ± 8.7%
ΔTpH≥6(%) [4]: 67.9 ± 12.4%
Mean (pH) [5]: 7.0 ± 0.6 pH
Median (pH) [5]: 7.5 ± 0.6 pH
TpH≥3(%) [5]: 95.7 ± 1.3%
TpH≥4(%) [5]: 91.7 ± 4.9%
TpH≥6(%) [5]: 80.2 ± 7.5%
ΔMean (pH) [5]: 4.5 ± 0.7^a^,^b pH
ΔMedian (pH) [5]: 5.5 ± 0.5^a pH
ΔTpH≥3(%) [5]: 75.4 ± 7.6^a^,^b %
ΔTpH≥4 (%) [5]: 79.9 ± 6.6^b %
ΔTpH≥6(%) [5]: 75.3 ± 9.3^a^,^b %
Mean (pH) [6]: 6.6 ± 0.8 pH
Median (pH) [6]: 6.7 ± 1.1 pH
TpH≥3(%) [6]: 98.5 ± 1.8%
TpH≥4(%) [6]: 91.0 ± 10.4%
TpH≥6(%) [6]: 66.9 ± 17.6%
ΔMean (pH) [6]: 4.0 ± 1.1^b pH
ΔMedian (pH) [6]: 4.7 ± 1.0^b pH
ΔTpH≥3(%) [6]: 84.0 ± 9.1^a^,^b %
ΔTpH≥4 (%) [6]: 80.9 ± 11.2^a^,^b %
ΔTpH≥6(%) [6]: 59.2 ± 21.4^a^,^b %
Mean (pH) [7]: 5.1 ± 1.4 pH
Median (pH) [7]: 5.6 ± 2.0 pH
TpH≥3(%) [7]: 69.5 ± 24.9%
TpH≥4(%) [7]: 63.3 ± 26.8%
TpH≥6(%) [7]: 46.8 ± 27.3%
ΔMean (pH) [7]: 2.9 ± 1.0^c pH
ΔMedian (pH) [7]: 3.5 ± 1.7^c pH
ΔTpH≥3(%) [7]: 54.0 ± 28.3%
ΔTpH≥4 (%) [7]: 53.6 ± 23.3%
ΔTpH≥6(%) [7]: 42.6 ± 23.6%
Mean (pH) [8]: 5.7 ± 0.9 pH
Median (pH) [8]: 6.0 ± 1.1 pH
TpH≥3(%) [8]: 81.1 ± 14.2%
TpH≥4(%) [8]: 75.6 ± 17.1%
TpH≥6(%) [8]: 57.1 ± 18.8%
ΔMean (pH) [8]: 3.0 ± 1.0^c pH
ΔMedian (pH) [8]: 3.7 ± 1.0^c pH
ΔTpH≥3(%) [8]: 52.6 ± 21.0^c %
ΔTpH≥4 (%) [8]: 57.3 ± 22.3%
ΔTpH≥6(%) [8]: 51.2 ± 17.1^c %
Mean (pH) [9]: 5.1 ± 1.3 pH
Median (pH) [9]: 4.7 ± 1.7 pH
TpH≥3(%) [9]: 70.7 ± 27.8%
TpH≥4(%) [9]: 62.5 ± 31.5%
TpH≥6(%) [9]: 43.7 ± 25.6%
ΔMean (pH) [9]: 2.6 ± 1.3 pH
ΔMedian (pH) [9]: 2.8 ± 1.7 pH
ΔTpH≥3(%) [9]: 56.6 ± 27.3^c %
ΔTpH≥4 (%) [9]: 50.7 ± 30.9^c %
ΔTpH≥6(%) [9]: 33.3 ± 25.5^c %
AUCτ 1−τ 2pH−t (20 mg iv, 0–4 h): 501 ± 268 pH·h
AUCτ 1−τ 2pH−t (20 mg iv, 10–14 h): 784 ± 346 pH·h
AUCτ 1−τ 2pH−t (20 mg iv, 14–24 h): 942 ± 632 pH·h
AUCτ 1−τ 2pH−t (30 mg iv, 0–4 h): 793 ± 268 pH·h
AUCτ 1−τ 2pH−t (30 mg iv, CYP2C19 EM (n = 11), 0–4 h): 762 ± 250 pH·h
AUCτ 1−τ 2pH−t (30 mg iv, CYP2C19 EMs, H+/K+-ATPase Het (n = 8), 0–4 h): 531 ± 194^c pH·h
AUCτ 1−τ 2pH−t (30 mg iv, CYP2C19 EMs, H+/K+-ATPase Het (n = 8), 14–24 h): 755 ± 198^c pH·h
AUCτ 1−τ 2pH−t (30 mg iv, CYP2C19 EMs, H+/K+-ATPase WT (n = 6), 0–4 h): 817 ± 157 pH·h
AUCτ 1−τ 2pH−t (30 mg iv, CYP2C19 EMs, H+/K+-ATPase WT (n = 6), 14–24 h): 968 ± 553^c pH·h
AUCτ 1−τ 2pH−t (30 mg iv, CYP2C19 IM (n = 10), 0–4 h): 789 ± 405 pH·h
AUCτ 1−τ 2pH−t (30 mg iv, CYP2C19 PM (n = 7), 0–4 h): 837 ± 235 pH·h
AUCτ 1−τ 2pH−t [1]: 727 ± 297 pH·h
AUCτ 1−τ 2pH−t [7]: 681 ± 248^c pH·h
